According to US20140128352A1, “COMPOUNDS AND METHODS FOR MODULATING MITOCHONDRIAL METABOLISM AND REACTIVE OXYGEN SPECIES PRODUCTION” (Buck Institute for Research on Aging, priority 2012, published 2014):

Legend:
[1] = system: site IQ; assay: ROS production with NADH and cytochrome b566 reduction states, mitochondria respiring on CI substrates; type: biochemical, rat; conditions: 2.5 uM, ATP synthesis restricted
Source text: The contribution of site IQ to total ROS production under “normal” circumstances (e.g. when electrons enter CI primarily in the forward direction) remains contentious. […] A possible explanation for this difference is the leak of electrons from site IQ as both Q-pool reduction and PMF remained high in the absence of energy production. To test if site IQ is indeed active under such conditions, we used Compound No. 4 to non-invasively probe mitochondrial ROS production in this system. […] It is believed that even under extreme conditions in which forward electron flow through CI dominates, this provides evidence that site IQ can be a relevant source of ROS.
The rate of ROS production from site IF is linked to the reduction state of the NAD(P)H pool in the mitochondrial matrix (Treberg et al., 2011; Quinlan et al, submitted). Therefore, to evaluate the mechanism of action of putative IF ROS inhibitors, the effect of candidate compounds on the relationship between site IF ROS production and NAD(P)H reduction was tested. NAD(P)H reduction was monitored in isolated mitochondria (0.3 mg/mL) on a Varian Cary Eclipse fluorimeter (ex 365/em 450 nm) as described by Treberg et al., 2011 except the reduction state was slowly titrated with increasing rotenone (0.08 to 4 uM) in the presence of saturating malate (5 mM) and the uncoupler FCCP. Glutamate (5 mM) was added to achieve 100% reduction. […]

[2] = system: complex I; assay: Rate of NAD(P)H reduction via complex I versus observed ROS production; type: biochemical, rat; conditions: 2.5 uM; succinate with low glutamate; FIG. 2B
Description: To compare candidate IQ ROS inhibitors with mitochondrial inhibitors known to disrupt complex I activity (e.g. rotenone) or oxidize the electron transport chain (e.g. the uncoupler FCCP), the rate of NAD(P)H reduction via complex I was measured when isolated mitochondria were provided with saturating concentrations of the complex II substrate succinate (5 mM) and subsaturating levels of glutamate (1 mM) to facilitate full activation of complex II by oxaloacetate removal. […] These conditions allow electron and proton fluxes through complex Ito reverse and be directed predominantly toward the matrix. Addition of succinate causes a rapid increase in the reduction state of the matrix NAD(P)H pool that can be monitored as described above. The rate of NAD(P)H reduction is therefore a measure of electron flux through complex I for which direct comparisons can be made under identical conditions to effects on rates of ROS production.

[3] = biological target: T1, mitochondrial GPDH (Rattus norvegicus, UniProt P35571); assay: Mitochondrial GPDH activity (DCPIP reduction); type: biochemical
T1 construct: The activity of GPDH in intact mitochondria (0.3 mg/mL) was measured; from tissue; host or cells: rat skeletal muscle mitochondria (Wistar, Harlan Laboratories)
T1 sequence (P35571 43-727): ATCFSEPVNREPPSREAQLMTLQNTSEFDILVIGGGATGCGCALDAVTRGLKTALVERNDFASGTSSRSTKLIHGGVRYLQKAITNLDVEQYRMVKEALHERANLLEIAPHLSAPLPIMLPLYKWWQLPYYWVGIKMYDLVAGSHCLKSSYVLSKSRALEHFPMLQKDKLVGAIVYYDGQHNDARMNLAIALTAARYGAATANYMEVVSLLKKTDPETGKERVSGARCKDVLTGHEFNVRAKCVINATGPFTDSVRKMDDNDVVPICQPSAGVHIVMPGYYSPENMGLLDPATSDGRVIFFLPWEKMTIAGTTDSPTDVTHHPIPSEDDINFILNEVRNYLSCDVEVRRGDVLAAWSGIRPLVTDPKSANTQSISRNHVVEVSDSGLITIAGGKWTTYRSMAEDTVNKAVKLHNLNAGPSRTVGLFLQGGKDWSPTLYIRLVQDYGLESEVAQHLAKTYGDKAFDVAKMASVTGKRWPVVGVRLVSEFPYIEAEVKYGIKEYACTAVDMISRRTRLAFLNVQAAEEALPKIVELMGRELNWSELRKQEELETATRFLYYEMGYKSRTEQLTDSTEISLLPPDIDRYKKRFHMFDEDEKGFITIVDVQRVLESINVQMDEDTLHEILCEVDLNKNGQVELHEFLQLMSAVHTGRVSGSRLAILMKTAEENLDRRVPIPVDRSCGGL

| SMILES | observed ROS production and NADH / b566 reduction states [1] | suppression of observed ROS before any sign of altered flux through CI to NADH [2] | kinetics of inhibition of GPDH activity [3] | potency at inhibiting GPDH activity relative to Compound No. 46 [3] |
| --- | --- | --- | --- | --- |
| O=[N+]([O-])c1ccc(Oc2ccc(S(=O)(=O)NC3CCCCC3)cc2)cc1 [Compound 4] | lowered the observed ROS production without any changes to the NADH or b566 reduction states | at least 45% |  |  |
| O=C(O)CCC(=O)Nc1ccc(-c2nc3cc4ccccc4cc3[nH]2)cc1 [Compound 61] |  |  | mixed inhibition kinetics | at least 6 times |
